# Laboratory results: US9663545B2, “Organometallic 2-cyano-2-aminobenzoate-propyl derivates and their use as anthelmintics” (UNIVERSITÄT ZÜRICH, priority 2013, dated 2017)
# Experiment: stability in sheep plasma (LC-MS)
# Settings: 37° C., different time intervals, diazepam internal standard, new peak of the hydrolysed product arises
# Procedure: Compound 8a and diazepam (internal standard) were incubated at 37° C. for different time intervals and their stability was checked using an LC-MS technique.
substance,measurement,value
2-cyano-2-(4-((trifluoromethyl)thio)benzamido)propyl ferrocenoate [Compound 8a],stability in sheep plasma (LC-MS peak of the compound),decreasing within 24 hours
